The values that follow come from patent publication US20240109891A1, “NOVEL SUBSTITUTED TRICYCLIC AZA-HETEROCYCLES AS SOS1 INHIBITORS” (Viva Star Biosciences (Suzhou) Co., Ltd., priority 2021, published 2024).

Experiment [1] addresses T1, KRAS-WT and SOS1 proteins (Homo sapiens, UniProt Q07889).
T1 construct: purchased Cisbio 63ADK000CB15PEG
T1 sequence (Q07889 1-1333): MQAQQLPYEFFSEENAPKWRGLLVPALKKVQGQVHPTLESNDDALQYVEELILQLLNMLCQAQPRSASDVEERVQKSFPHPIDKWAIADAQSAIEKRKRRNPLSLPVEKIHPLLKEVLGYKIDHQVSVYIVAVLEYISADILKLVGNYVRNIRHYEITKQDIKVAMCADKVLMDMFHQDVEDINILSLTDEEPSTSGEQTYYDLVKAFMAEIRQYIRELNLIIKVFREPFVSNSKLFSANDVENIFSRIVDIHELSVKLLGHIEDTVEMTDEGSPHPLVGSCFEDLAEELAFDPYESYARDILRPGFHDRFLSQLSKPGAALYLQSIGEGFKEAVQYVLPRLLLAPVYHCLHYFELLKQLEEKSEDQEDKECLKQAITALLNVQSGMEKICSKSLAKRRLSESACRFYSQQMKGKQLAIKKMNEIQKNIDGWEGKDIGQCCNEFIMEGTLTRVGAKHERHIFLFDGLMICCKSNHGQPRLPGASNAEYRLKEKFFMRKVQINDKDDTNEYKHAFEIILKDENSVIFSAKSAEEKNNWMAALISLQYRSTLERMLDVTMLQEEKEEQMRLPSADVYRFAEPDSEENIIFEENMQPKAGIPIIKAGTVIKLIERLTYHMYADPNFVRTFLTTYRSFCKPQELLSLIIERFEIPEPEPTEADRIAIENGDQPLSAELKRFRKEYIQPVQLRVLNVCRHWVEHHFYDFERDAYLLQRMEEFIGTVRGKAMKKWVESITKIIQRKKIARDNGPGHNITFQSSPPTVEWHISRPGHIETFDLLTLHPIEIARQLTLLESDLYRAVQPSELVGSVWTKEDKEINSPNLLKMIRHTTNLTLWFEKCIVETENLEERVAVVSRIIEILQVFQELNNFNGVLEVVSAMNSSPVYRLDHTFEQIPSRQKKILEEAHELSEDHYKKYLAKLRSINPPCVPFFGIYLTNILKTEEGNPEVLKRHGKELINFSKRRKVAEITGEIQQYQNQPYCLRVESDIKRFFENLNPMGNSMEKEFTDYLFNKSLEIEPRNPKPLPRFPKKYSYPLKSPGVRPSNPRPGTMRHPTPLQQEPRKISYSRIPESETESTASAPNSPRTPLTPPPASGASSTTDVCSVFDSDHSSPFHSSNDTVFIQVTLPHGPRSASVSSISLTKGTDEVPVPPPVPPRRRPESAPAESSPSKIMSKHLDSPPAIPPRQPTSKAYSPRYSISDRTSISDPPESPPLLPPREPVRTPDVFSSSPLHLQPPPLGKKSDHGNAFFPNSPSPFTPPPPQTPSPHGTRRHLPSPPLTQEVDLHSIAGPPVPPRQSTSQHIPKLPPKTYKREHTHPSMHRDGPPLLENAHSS
In words: KRAS-WT/SOS1 binding assay (HTRF). The settings on record: Tag1-SOS1 / Tag2-KRAS-WT, 10 μM GTP, read-out: Activity Data in Kras: SOS1 Assay, Wild Type. How it is done: (§1) KRAS-WT (or G12C/G12D/G12V)/SOS1 Binding Assay
(§2) Low IC50 values are indicative of high potency of the SOS1 inhibitor compounds in this assay setting.
(§3) The KRAS-WT (or G12C/G12D/G12V)/SOS1 binding assay is performed using an assay kit (Cisbio, Cat #63ADK000CB15PEG or 63ADK000CB16PEG/63ADK000CB17PEG/63ADK000CB18PEG) according to the procedure recommended by the manufacturer. • 1) Thaw and prepare the working solution of Tag1-SOS1 protein and Tag2-KRAS-WT (or G12C/G12D/G12V) protein with final concentration of 10 μM GTP (Sigma, Cat #V900868). • 2) Thaw and prepare the working solution of anti-Tag1-Tb^3+ anti-Tag2-XL665. • 3) Dispense 2 μL of serially diluted compound, 4 μL of Tag1-SOS1 protein and 4 μL of Tag2-KRAS-WT (or G12C/G12D/G12V) protein with GTP into a ProxiPlate-384 Plus, white 384-shallow well microplate (PerkinElmer, Cat #6008280). • 4) Incubate the plate for 15 minutes at room temperature. • 5) Dispense 10 μL of pre-mixed anti-Tag1-Tb^3+ and anti-Tag2-XL665 into the plate. • 6) Seal the plate and incubate for 2 hours at room temperature. • 7) Remove the plate sealer and read on PHERAstar FS (BMG LABTECH, PHERAstar FS). • 8) Calculate the ratio of the acceptor and donor emission signals for each individual well using the following equation.
(§4) [formula] • 9) IC50 values are fitted and calculated by HTRF signal values and log of compound concentrations to nonlinear regression [Log (inhibitor) vs. Response−Variable Slope (four parameters)] using the GraphPad Prism 8.0.

In experiment [2] the target is T2, KRAS G12D and SOS1 proteins (Homo sapiens, UniProt Q07889).
T2 construct: purchased Cisbio 63ADK000CB17PEG
T2 sequence (Q07889 1-1333): T1 sequence (Q07889 1-1333)
The experiment in a line: KRAS-G12D/SOS1 binding assay (HTRF). The settings on record: Tag1-SOS1 / Tag2-KRAS G12D, 10 μM GTP. How it is done:
as §1, §2, §3, §4

On to `Cc1nc(N[C@H](C)c2cccc(C(F)(F)CO)c2)c2cc(OC3CC(F)(F)C3)c3c(cnn3C)c2n1` [Example 39, (R)-2-(3-(1-((6-(3,3-difluorocyclobutoxy)-2,7-dimethyl-7H-pyrazolo[3,4-h]quinazolin-4-yl)amino)ethyl)phenyl)-2,2-difluoroethan-1-ol], for which the IC50 in experiment [1] and in experiment [2] was 100 to 500 nM in each case.

`C[C@@H](Nc1nc2ccnn2c2cc(=O)n(C3(C)CC3)cc12)c1cccc(C(C)(F)F)c1F` [Example 64, (R)-5-((1-(3-(1,1-difluoroethyl)-2-fluorophenyl)ethyl)amino)-7-(1-methylcyclopropyl)pyrazolo[1,5-a]pyrido[3,4-e]pyrimidin-8(7H)-one]: the IC50 in experiment [1] and in experiment [2] was less than 100 nM each time.

For `CC(=O)N1CCC(c2cc3c(N[C@H](C)c4cc(C(C)(C)O)cc(C(F)(F)F)c4)nc(C)nc3n3cnnc23)CC1` [Example 13, (R)-1-(4-(4-((1-(3-(2-hydroxypropan-2-yl)-5-(trifluoromethyl)phenyl)ethyl)amino)-2-methyl-[1,2,4]triazolo[4′,3′:1,6]pyrido[2,3-d]pyrimidin-6-yl)piperidin-1-yl)ethan-1-one], the IC50 in experiment [1] and in experiment [2] was greater than 5000 nM in each case.

In the case of `C[C@@H](Nc1nc2ccnn2c2cc(=O)n(C3CCN(C)CC3)cc12)c1cccc(C(F)(F)CO)c1` [Example 76, (R)-5-((1-(3-(1,1-difluoro-2-hydroxyethyl)phenyl)ethyl)amino)-7-(1-methylpiperidin-4-yl)pyrazolo[1,5-a]pyrido[3,4-e]pyrimidin-8(7H)-one], the IC50 in experiment [1] and in experiment [2] was less than 100 nM throughout.

For `Cc1nc(N[C@H](C)c2cccc(C(F)(F)CO)c2)c2cc(O[C@H]3CCOC3)c3c(cnn3C)c2n1` [Example 38, 2-(3-((R)-1-((2,7-dimethyl-6-(((S)-tetrahydrofuran-3-yl)oxy)-7H-pyrazolo[3,4-h]quinazolin-4-yl)amino)ethyl)phenyl)-2,2-difluoroethan-1-ol], the IC50 in experiment [1] and in experiment [2] was less than 100 nM in each case.

As to `Cc1nc(N[C@H](C)c2cccc3c2CCC3(F)F)c2cc(O[C@H]3CCOC3)c3nncn3c2n1` [Example 19, N-((R)-1-(1,1-difluoro-2,3-dihydro-1H-inden-4-yl)ethyl)-2-methyl-6-(((S)-tetrahydrofuran-3-yl)oxy)-[1,2,4]triazolo[4′,3′:1,6]pyrido[2,3-d]pyrimidin-4-amine], the IC50 in experiment [1] and in experiment [2] was less than 100 nM each time.

Turning to `COc1cc2c(cc1O[C@H]1CCOC1)c(N[C@H](C)c1cc(N)cc(C(F)(F)F)c1)nc1ccnn12` [Example 55, N-[(1R)-1-[3-amino-5-(trifluoromethyl)phenyl]ethyl]-8-methoxy-7-[(3S)-oxolan-3-yloxy]pyrazolo[1,5-a]quinazolin-5-amine], the IC50 in experiment [1] and in experiment [2] was 100 to 500 nM in each case.

Consider `Cc1nc(N[C@H](C)c2cccc(C(F)(F)CO)c2)c2cc(C3CCN(C)CC3)c3c(cnn3C)c2n1` [Example 30, (R)-2-(3-(1-((2,7-dimethyl-6-(1-methylpiperidin-4-y1)-7H-pyrazolo[3,4-h]quinazolin-4-yl)amino)ethyl)phenyl)-2,2-difluoroethan-1-ol], for which the IC50 in experiment [1] and in experiment [2] was less than 100 nM throughout.

In the case of `Cc1nc(N[C@H](C)c2cccc(C(F)(F)CO)c2)c2cc(O[C@H]3CCN(C)C3)c3c(cnn3C)c2n1` [Example 41, 2-(3-((R)-1-((2,7-dimethyl-6-(((S)-1-methylpyrrolidin-3-yl)oxy)-7H-pyrazolo[3,4-h]quinazolin-4-yl)amino)ethyl)phenyl)-2,2-difluoroethan-1-ol], the IC50 in experiment [1] and in experiment [2] was less than 100 nM in each case.

As for `CC(=O)N1CCC(c2cc3c(N[C@H](C)c4cccc5c4CCC5(F)F)nc(C)nc3n3cnnc23)CC1` [Example 7, (R)-1-(4-(4-((1-(1,1-difluoro-2,3-dihydro-1H-inden-4-yl)ethyl)amino)-2-methyl-[1,2,4]triazolo[4′,3′:1,6]pyrido[2,3-d]pyrimidin-6-yl)piperidin-1-yl)ethanone], the IC50 in experiment [1] and in experiment [2] was less than 100 nM each time.
